Positions count from the first letter of the chain named.
Columns and labels:
Type in all cases: cell-based
AR [1] = experiment: Real-time PCR of AR target gene transcription in LNCaP-AR (AR overexpressing) cells, CRPC model; conditions: benchmark compounds, AR overexpressing LNCaP cells
Method: Real-Time PCR (CRPC model of AR overexpressing prostate cancer cells, Table 2, B4-B7). LNCaP-AR (AR overexpressing cells) cells were seeded in 12-well plates in RPMI 1640 (8% charcoal-stripped fetal calf serum (CFS)). […] AR target gene transcription (PSA, NKX3.1, FKBP5) was assessed by realtime PCR.
(§1) For B4-B7, scoring system is based on the relative AR target gene agonist/antagonist activity of test compounds when compared to benchmark compounds enzalutamide or bicalutamide. […] The lack of agonist activity is desirable for therapies intended to treat CRPC. For B4 and B6, a score of 1 indicates less agonism (highly desired activity) than benchmark compound enzalutamide, a score of 2 indicates equal agonism to enzalutamide (desirable), a score of 3 indicates agonism between enzalutamide and bicalutamide (less desirable activity), a score of 4 indicates equal agonism to bicalutamide (liability), and a score of 5 indicates higher agonism than bicalutamide (liability). For B5 and B7 a score of 1 indicates higher antagonist efficacy (highly desired activity) than benchmark compound enzalutamide, a score of 2 indicates equal antagonist efficacy to enzalutamide (desirable), a score of 3 indicates antagonist efficacy between enzalutamide and bicalutamide (less desirable activity), a score of 4 indicates antagonist efficacy equal to bicalutamide (liability), and a score of 5 indicates antagonist efficacy worse than bicalutamide (liability) For B9, Compounds that degrade AR (greater than 50% degradation at 10 μM) are indicated.

AR [2] = biological target: T1, AR (Homo sapiens, UniProt P10275); experiment: Reporter gene assay, AR transcriptional (MMTV-Luc) in CV1 cells; conditions: pcDNA-AR + MMTV-Luc, 0.1 nM R1881 plus test compound, 24 hrs, read-out: B1 = AR transcriptional IC50 (μM) in CV1 cells
T1 construct: expressed in transfected cells; host or cells: CV1 cells
T1 sequence (P10275 1-920): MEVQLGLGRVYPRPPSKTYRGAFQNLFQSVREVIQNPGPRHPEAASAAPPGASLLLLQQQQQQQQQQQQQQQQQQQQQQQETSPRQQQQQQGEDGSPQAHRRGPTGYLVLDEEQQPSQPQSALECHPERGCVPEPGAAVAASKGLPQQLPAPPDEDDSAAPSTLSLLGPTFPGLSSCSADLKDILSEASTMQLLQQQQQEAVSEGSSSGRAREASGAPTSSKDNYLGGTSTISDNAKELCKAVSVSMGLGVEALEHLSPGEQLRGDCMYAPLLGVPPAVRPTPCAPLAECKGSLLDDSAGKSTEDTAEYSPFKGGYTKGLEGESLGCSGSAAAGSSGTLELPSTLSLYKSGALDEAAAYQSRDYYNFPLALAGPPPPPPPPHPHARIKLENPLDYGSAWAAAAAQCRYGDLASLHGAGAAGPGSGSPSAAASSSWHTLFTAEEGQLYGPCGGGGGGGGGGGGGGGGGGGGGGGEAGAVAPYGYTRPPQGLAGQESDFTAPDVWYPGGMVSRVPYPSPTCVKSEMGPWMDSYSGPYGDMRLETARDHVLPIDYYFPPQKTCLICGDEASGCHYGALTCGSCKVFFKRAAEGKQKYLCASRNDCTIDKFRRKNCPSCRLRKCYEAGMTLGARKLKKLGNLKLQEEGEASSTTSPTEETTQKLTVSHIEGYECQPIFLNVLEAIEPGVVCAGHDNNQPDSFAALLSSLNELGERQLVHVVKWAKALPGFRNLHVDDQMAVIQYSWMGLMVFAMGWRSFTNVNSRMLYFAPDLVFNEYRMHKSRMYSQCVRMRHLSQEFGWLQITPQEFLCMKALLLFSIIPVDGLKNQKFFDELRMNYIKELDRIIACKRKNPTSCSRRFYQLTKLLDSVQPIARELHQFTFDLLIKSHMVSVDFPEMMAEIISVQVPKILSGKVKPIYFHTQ
How it was run: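 CV1 cells transiently co-transfected with human AR, MMTV-Luc reporter and Renilla-Luc (transfection efficiency and toxicity read-out), then stimulated 24 h with 0.1 nM R1881 plus increasing test compound concentrations. Firefly and Renilla luciferase quantified by dual-luciferase assay; IC50 derived from concentration-response.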

AR [3] = biological target: T2, AR (Homo sapiens, UniProt P10275, T878A); experiment: In Cell Western AR degradation assay in LNCaP cells; conditions: 18 hrs, greater than 50% degradation at 10 μM (method says 20 μM)
T2 construct: endogenous in cells; host or cells: LNCaP cells
T2 sequence (P10275 1-920 T878A): T1 sequence (P10275 1-920) with T878A
Method: In Cell Western (AR degradation Assay, Table 2, B10). LNCaP cells were plated in 96-well clear bottom black plates (20K cells/well) in RPMI supplemented with 8% CFS. Following 48 hr incubation, cells were treated with hormone (20 μM test compound) for 18 hrs. Cells were fixed with formaldehyde (3.7%) and permeabilized using PBS (0.1% TRITON X-100). Cells were incubated with anti-AR antibody (N20, 1:2000), washed with PBS (0.1% Tween), and stained with 2nd antibody (Biotium CF770 goat anti-rabbit, 1:2000). AR protein expression was assessed using the LI-COR Odyssey imaging system. DRAQ5 (DNA stain, 1:10,000, Thermo Scientific) was used to normalize AR protein expression.
as §1

| Structure (SMILES) | agonist activity in AR overexpressing LNCaP cells (model of CRPC) (AR [1]) | IC50 (AR [2]) [µM] | B9 = AR degradation in LNCaP cells (In-Cell Western) (AR [3]) |
| --- | --- | --- | --- |
| CNC(=O)c1ccc(N2C(=S)N(c3ccc(C#N)c(C(F)(F)F)c3)C(=O)C2(C)C)cc1F [Enzalutamide, enzalutamide, reference compound] | does not possess agonist activity | – | – |
| CC1(C)CC(=O)C2=C(C1)Nc1ccc3ncccc3c1C2c1ccc(Cl)nc1 (centres unmarked) [Compound A71] | – | 6.9 | Degrader (Compounds that degrade AR (greater than 50% degradation at 10 μM) are indicated) |
| CC1(C)CC(=O)C2=C(C1)Nc1ccc3ncccc3c1C2c1csc([N+](=O)[O-])c1 (centres unmarked) [Compound A60] | – | 1.7 | Degrader (Compounds that degrade AR (greater than 50% degradation at 10 μM) are indicated) |
| CC1(C)CC(=O)C2=C(C1)Nc1ccc3ncccc3c1C2c1ccc(C#N)cc1 (centres unmarked) [Compound A55] | – | > 10 | Degrader (Compounds that degrade AR (greater than 50% degradation at 10 μM) are indicated) |
| Cn1ncc2ccc3c(c21)C(c1ccc(Cl)s1)C1=C(CC(C)(C)CC1=O)N3 (centres unmarked) [Compound A109] | – | 4.7 | Degrader (Compounds that degrade AR (greater than 50% degradation at 10 μM) are indicated) |
| CC1(C)CC(=O)C2=C(C1)Nc1ccc3cccnc3c1C2c1ccc(F)c(F)c1 (racemic) [Compound A96, (±)-12-(3,4-difluorophenyl)-9,9-dimethyl-8,9,10,12-tetrahydrobenzo[j][1,7]phenanthrolin-11(7H)-one] | – | 0.8 | Degrader (Compounds that degrade AR (greater than 50% degradation at 10 μM) are indicated) |
| CC1(C)CC(=O)C2=C(C1)Nc1ccc3ncccc3c1C2c1nccs1 (centres unmarked) [Compound A67] | – | > 10 | Degrader (Compounds that degrade AR (greater than 50% degradation at 10 μM) are indicated) |
| CC1(C)CC(=O)C2=C(C1)Nc1ccc3ncccc3c1C2c1ccc(Cl)cc1Cl (racemic) [Compound A88, (±)-12-(2,4-dichlorophenyl)-9,9-dimethyl-8,9,10,12-tetrahydrobenzo[b][4,7]phenanthrolin-11(7H)-one] | – | 1.1 | Degrader (Compounds that degrade AR (greater than 50% degradation at 10 μM) are indicated) |
| CC1(C)CC(=O)C2=C(C1)Nc1cc(N3CCCC3)ccc1C2c1ccc(Cl)s1 (racemic) [Compound A97, (±)-9-(5-chlorothiophen-2-yl)-3,3-dimethyl-6-(pyrrolidin-1-yl)-3,4,9,10-tetrahydroacridin-1(2H)-one] | – | > 10 | Degrader (Compounds that degrade AR (greater than 50% degradation at 10 μM) are indicated) |
| CC1(C)CC(=O)C2=C(C1)Nc1ccc3ncncc3c1C2c1ccc(Cl)s1 (racemic) [Compound A101, (±)-12-(5-chlorothiophen-2-yl)-9,9-dimethyl-8,9,10,12-tetrahydropyrimido[5,4-a]acridin-11(7H)-one] | – | 0.8 | Degrader (Compounds that degrade AR (greater than 50% degradation at 10 μM) are indicated) |
| CC1(C)CC(=O)C2=C(C1)Nc1ccc3ncccc3c1C2c1ccc(Cl)s1 (centres unmarked) [Compound A64] | – | 1.9 | Degrader (Compounds that degrade AR (greater than 50% degradation at 10 μM) are indicated) |
| CC1(C)CC(=O)C2=C(C1)Nc1ccc3ncccc3c1C2c1ccc(F)c(Br)c1 (centres unmarked) [Compound A74] | – | 8.6 | Degrader (Compounds that degrade AR (greater than 50% degradation at 10 μM) are indicated) |
| CC1(C)CC(=O)C2=C(C1)Nc1ccc3ncccc3c1C2c1ccc(Cl)c([N+](=O)[O-])c1 (centres unmarked) [Compound A75] | – | > 10 | Degrader (Compounds that degrade AR (greater than 50% degradation at 10 μM) are indicated) |
| Cc1ccsc1C1C2=C(CC(C)(C)CC2=O)Nc2ccc3ccccc3c21 (centres unmarked) [Compound A117] | – | 2.3 | Degrader (Compounds that degrade AR (greater than 50% degradation at 10 μM) are indicated) |
| Cc1nc2ccc3c(c2nc1C)C(c1ccc(F)c(F)c1)C1=C(CC(C)(C)CC1=O)N3 (racemic) [Compound A84, (±)-12-(3,4-difluorophenyl)-2,3,9,9-tetramethyl-8,9,10,12-tetrahydropyrazino[2,3-a]acridin-11(7H)-one] | – | 55 | Degrader (Compounds that degrade AR (greater than 50% degradation at 10 μM) are indicated) |

Reference: patent US20180303807A1, “ANDROGEN RECEPTOR LIGANDS” (DUKE UNIVERSITY, priority 2015, published 2018)
